Data as given in patent US20130212738A1, “COMPOSITION FOR PHYTOCHELATIN TRANSPORT” (POSTECH ACADEMY-INDUSTRY FOUNDATION, priority 2010, published 2013).

Columns and labels:
[1] = target: T1, AtABCC2 (Arabidopsis thaliana, UniProt Q42093); format: biochemical, A. thaliana
T1 construct: expressed in transfected cells; host or cells: Saccharomyces cerevisiae SM7 (ycf1/yhl035c/yll015w/yll048c-deficient, expressing TaPCS1); microsomal vesicles

[2] = target: T2, AtABCC1 (Arabidopsis thaliana, UniProt Q9C8G9); assay: PC2 transport into microsomal vesicles of SM7 yeast expressing AtABCC1; format: biochemical, A. thaliana; conditions: vanadate 1 mM, NH4Cl 5 mM, PC 25 μM
T2 construct: expressed in transfected cells; host or cells: Saccharomyces cerevisiae SM7 (ycf1/yhl035c/yll015w/yll048c-deficient, expressing TaPCS1); microsomal vesicles

[3] = test system: A. thaliana mesophyll vacuoles; assay: PC2 transport into intact vacuoles isolated from A. thaliana mesophyll protoplasts; format: biochemical
[4] = target: PC2-As complex (phytochelatin PC2 in complex with As(III)); assay: cell-based or functional assay
[5] = test system: atabcc1 atabcc2 double knock-out A. thaliana; conditions: in vivo

Molecule | concentration of PC at half maximum of the absorption (transport) activities, 35S-PC2 uptake into yeast SM7 microsomal vesicles [4] [µM] | growth of the atabcc1 atabcc2 knock-out line compared with the wild type [5] | other results
[O]=[V]([O-])([O-])[O-] [vanadate] |  |  | inhibition of absorption of PC2—As complex into the yeast vesicle [1]: remarkably reduced; inhibition of absorption of PC2—As complex into the yeast vesicle [2]: remarkably reduced; residual transport activity (PC transport of isolated vacuoles) [3]: 25±7%
AtABCC2 (from UniProt Q42093 1-1623) | 350 |  | 
[Cd] [Cd, cadmium] |  | dramatically inhibited | 
AtABCC1 (from UniProt Q9C8G9 1-1622) | 350 |  | 
O=[As]([O-])([O-])O.[Na+].[Na+] [As(V), Na2HAsO4] |  | dramatically inhibited | 
arsenite |  |  | transport of arsenic in a non-chelated form (ICP-MS) [1]: not transported
